Assay [1] addresses human Gal-3 (hGal-3) (Homo sapiens (Human), UniProt P17931). In words: Competitive binding assay: binding of biotinylated hGal-3 to microplate-adsorbed asialofetuin (ASF). The conditions noted are these: Activity on hGal-3; mean values of several measurements. The essentials: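 Biotinylated hGal-3 (300-1000 ng/mL) bound to ASF-coated wells with serially diluted compound, 3 h at 4° C. After washing, bound protein was detected with streptavidin-peroxidase (80 ng/mL, 1 h, 4° C) and ABTS substrate; IC50 values are means of several measurements.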

In assay [2] the target is human Gal-1 (hGal-1). As to the kind of experiment: Competitive binding assay: binding of biotinylated hGal-1 to microplate-adsorbed asialofetuin (ASF). The conditions noted are these: Activities on hGal-1; mean values of several measurements. Summed up:
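Compounds diluted in DMSO competed with biotinylated hGal-3 or hGal-1 (300-1000 ng/mL) for binding to plate-adsorbed asialofetuin for 3 h at 4° C. Bound galectin was detected with streptavidin-peroxidase (80 ng/mL, 1 h, 4° C) and ABTS substrate; IC50 reported as mean of several measurements.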

Molecules are shown by their SMILES.

Sequence of human Gal-3 (hGal-3) (P17931 whole entry): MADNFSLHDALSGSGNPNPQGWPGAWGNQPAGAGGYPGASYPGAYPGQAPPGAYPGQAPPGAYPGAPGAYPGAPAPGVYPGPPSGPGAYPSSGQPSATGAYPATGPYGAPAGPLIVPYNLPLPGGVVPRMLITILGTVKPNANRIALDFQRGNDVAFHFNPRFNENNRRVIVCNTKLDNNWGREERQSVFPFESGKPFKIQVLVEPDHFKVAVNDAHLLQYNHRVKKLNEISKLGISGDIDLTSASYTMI
Sequence of human Gal-1 (hGal-1) (P09382 2-135 limits assumed): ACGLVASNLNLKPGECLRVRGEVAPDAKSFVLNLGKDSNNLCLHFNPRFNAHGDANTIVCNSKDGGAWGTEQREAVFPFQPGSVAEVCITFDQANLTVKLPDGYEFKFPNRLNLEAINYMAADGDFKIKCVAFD

On to `CO[C@@H]1[C@@H](n2cc(-c3ccc(C)c(F)c3F)nn2)[C@@H](O)[C@@H](CO)O[C@@H]1Cc1cc(C(C)(O)c2ccccc2F)on1` (some centres unmarked) [Ex 1.321], for which the values for the IC50 in assay [1] and in assay [2] were 400 nM and 9.17 µM, respectively.
In the same order, the values of `CO[C@@H]1[C@@H](n2cc(-c3ccc(C)c(F)c3F)nn2)[C@@H](O)[C@@H](CO)O[C@@H]1Cc1cc(C2(Oc3cncc(Br)c3)COC2)on1` [Ex 1.322] are 310 nM and above 100 µM.
`CCC(O)(CC)c1cc(C[C@H]2O[C@H](CO)[C@H](O)[C@H](n3cc(-c4ccc(C)c(F)c4F)nn3)[C@H]2OC)no1` [Ex 1.323]: the IC50 (usually the midpoint of a concentration-inhibition curve) came out at 620 nM in assay [1] and 5.08 µM in assay [2].
As for `CO[C@@H]1[C@@H](n2cc(-c3ccc(C)c(F)c3F)nn2)[C@@H](O)[C@@H](CO)O[C@@H]1Cc1cc(C2(CO)CC2)on1` [Ex 1.324], the IC50 turned out to be 140 nM in assay [1] and 3.57 µM in assay [2].
`CCOC(=O)N1CCC(C)(c2cc(C[C@H]3O[C@H](CO)[C@H](O)[C@H](n4cc(-c5ccc(C)c(F)c5F)nn4)[C@H]3OC)on2)CC1` [Ex 1.325]: the values for the concentration for half-maximal inhibition (IC50) in assay [1] and in assay [2] were 17 nM and 0.6 µM, respectively.
For `CO[C@@H]1[C@@H](n2cc(-c3ccc(C)c(F)c3F)nn2)[C@@H](O)[C@@H](CO)O[C@@H]1Cc1cc(C2(O)CCCC2)no1` [Ex 1.326] the same measures were 57 nM and 2.87 µM.
Consider `CCOC(C)(C)c1cc(C[C@H]2O[C@H](CO)[C@H](O)[C@H](n3cc(-c4ccc(C)c(F)c4F)nn3)[C@H]2OC)on1` [Ex 1.327], for which the results for the IC50 in assay [1] and in assay [2] were 76 nM and 4.17 µM, respectively.
As for `COc1ccc(-c2cn([C@H]3[C@@H](O)[C@@H](CO)O[C@H](CC4CC(C5CCN(C(=O)OC(C)(C)C)CC5)=NO4)[C@@H]3OC)nn2)c(F)c1F` (some centres unmarked) [Ex 1.328], the results for the IC50 in assay [1] and in assay [2] were 77 nM and 0.96 µM, respectively.
On to `CO[C@@H]1[C@@H](n2cc(-c3cccc(F)c3F)nn2)[C@@H](O)[C@@H](CO)O[C@@H]1CC1CC(C2CCN(C(=O)OC(C)(C)C)CC2)=NO1` (some centres unmarked) [Ex 1.329], for which the IC50 in assay [1] is 69 nM; in assay [2] it was 0.44 µM.
`COCC(C)(C)c1cc(C[C@H]2O[C@H](CO)[C@H](O)[C@H](n3cc(-c4ccc(C)c(F)c4F)nn3)[C@H]2OC)on1` [Ex 1.330]: the values for the IC50 in assay [1] and in assay [2] were 61 nM and 4.36 µM, respectively.
For `CO[C@@H]1[C@@H](n2cc(-c3ccc(C)c(F)c3F)nn2)[C@@H](O)[C@@H](CO)O[C@@H]1Cc1cc(C(C)(C)CNC(=O)OC(C)(C)C)no1` [Ex 1.331] the same measures were 58 nM and 1.99 µM.
For `CO[C@@H]1[C@@H](n2cc(-c3ccc(C)c(F)c3F)nn2)[C@@H](O)[C@@H](CO)O[C@@H]1Cc1cc(C2(CC#N)CC2)no1` [Ex 1.332] the same measures were 43 nM and 0.98 µM.
With `Cc1ccc(-c2cn([C@H]3[C@@H](O)[C@@H](CO)O[C@H](Cc4cc(C5(C)CC5)no4)[C@@H]3O)nn2)c(F)c1F` [Ex 1.333], the IC50 in assay [1] was 10 nM; in assay [2], 6.99 µM.
As for `Cc1ccc(-c2cn([C@H]3[C@@H](O)[C@@H](CO)O[C@H](Cc4cc(C(C)(C)CO)no4)[C@@H]3O)nn2)c(F)c1F` [Ex 1.334], the IC50 in assay [1] was 24 nM; in assay [2], 3.31 µM.
Regarding `Cc1ccc(-c2cn([C@H]3[C@@H](O)[C@@H](CO)O[C@H](Cc4cc(C5(C)COC5)no4)[C@@H]3O)nn2)c(F)c1F` [Ex 1.335], the results for the IC50 in assay [1] and in assay [2] were 26 nM and 3.78 µM, respectively.
For `CO[C@@H]1[C@@H](n2cc(-c3ccc(C)c(F)c3F)nn2)[C@@H](O)[C@@H](CO)O[C@@H]1Cc1cc(C(C)(C)CN)no1` [Ex 1.336] the same measures were 23 nM and 1.88 µM.
Regarding `CO[C@@H]1[C@@H](n2cc(-c3cc(F)c(F)c(F)c3)nn2)[C@@H](O)[C@@H](CO)O[C@@H]1Cc1cc(C2CCNC(=O)CC2)no1` (some centres unmarked) [Ex 1.337], the IC50 in assay [1] was determined as 55 nM; in assay [2], 0.42 µM.
Turning to `CO[C@@H]1[C@@H](n2cc(-c3ccc(C#N)c(F)c3F)nn2)[C@@H](O)[C@@H](CO)O[C@@H]1Cc1cc(C(C)(C)C)no1` [Ex 1.338], the IC50 worked out at 150 nM in assay [1] and 1.98 µM in assay [2].
In the same order, the values of `CO[C@@H]1[C@@H](n2cc(-c3ccc(C)c(F)c3F)nn2)[C@@H](O)[C@@H](CO)O[C@@H]1Cc1cc(C(C)(O)c2ccccc2)on1` (some centres unmarked) [Ex 1.339] are 280 nM and 10 µM.
Regarding `CO[C@@H]1[C@@H](n2cc(-c3ccc(C)c(F)c3F)nn2)[C@@H](O)[C@@H](CO)O[C@@H]1Cc1cc(C(C)(O)c2ccccc2)on1` (some centres unmarked) [Ex 1.340], the IC50 was 330 nM in assay [1] and 10.4 µM in assay [2].
Take `CO[C@@H]1[C@@H](n2cc(-c3ccc(C)c(F)c3F)nn2)[C@@H](O)[C@@H](CO)O[C@@H]1Cc1cc(C(C)c2ccccc2)no1` (some centres unmarked) [Ex 1.342]: the IC50 in assay [1] turned out to be 550 nM; in assay [2], 33 µM.
In the same order, the values of `CO[C@@H]1[C@@H](n2cc(-c3ccc(C)c(F)c3F)nn2)[C@@H](O)[C@@H](CO)O[C@@H]1Cc1cc([C@@H]2CC[C@H]2O)on1` [Ex 1.343] are 93 nM and 9.19 µM.
In the same order, the values of `CC(=O)O[C@@H]1[C@@H](n2cc(-c3ccc(C)c(F)c3F)nn2)[C@@H](O)[C@@H](CO)O[C@@H]1Cc1cc([C@@H]2CCC[C@H]2O)on1` [Ex 1.344] are 40 nM and 17 µM.
For `CO[C@@H]1[C@@H](n2cc(-c3ccc(C)c(F)c3F)nn2)[C@@H](O)[C@@H](CO)O[C@@H]1Cc1cc(C2CCC(=O)N(C)CC2)no1` (some centres unmarked) [Ex 1.345], the IC50 in assay [1] was 44 nM; in assay [2], 0.72 µM.
For `CO[C@@H]1[C@@H](n2cc(-c3ccc(C)c(F)c3F)nn2)[C@@H](O)[C@@H](CO)O[C@@H]1Cc1cc(C2CCC2O)on1` (some centres unmarked) [Ex 1.346], the IC50 was found to be 100 nM in assay [1] and 11.7 µM in assay [2].
With `CO[C@@H]1[C@@H](n2cc(-c3ccc(C)c(F)c3F)nn2)[C@@H](O)[C@@H](CO)O[C@@H]1Cc1cc(C2CCC2O)on1` (some centres unmarked) [Ex 1.347], the IC50 amounted to 110 nM in assay [1] and 8.21 µM in assay [2].
For `CO[C@@H]1[C@@H](n2cc(-c3ccc(C)c(F)c3F)nn2)[C@@H](O)[C@@H](CO)O[C@@H]1Cc1cc(C2CCNC(=O)CC2)no1` (some centres unmarked) [Ex 1.348] the same measures were 68 nM and 0.25 µM.
`CO[C@@H]1[C@@H](n2cc(-c3ccc(C)c(F)c3F)nn2)[C@@H](O)[C@@H](CO)O[C@@H]1Cc1cc([C@H]2C[C@H]2O)on1` [Ex 1.349]: the IC50 in assay [1] is 180 nM; in assay [2], 7.02 µM.
For `CO[C@@H]1[C@@H](n2cc(-c3ccc(C)c(F)c3F)nn2)[C@@H](O)[C@@H](CO)O[C@@H]1Cc1cc([C@@H]2C[C@H]2O)on1` [Ex 1.350] the same measures were 270 nM and 6.78 µM.
In the same order, the values of `CO[C@@H]1[C@@H](n2cc(-c3cccc(F)c3F)nn2)[C@@H](O)[C@@H](CO)O[C@@H]1Cc1cc(C(C)(C)C)on1` [Ex 1.351] are 180 nM and 1.05 µM.
For `COc1ccc(-c2cn([C@H]3[C@@H](O)[C@@H](CO)O[C@H](Cc4cc(C(C)(C)C)on4)[C@@H]3OC)nn2)c(F)c1F` [Ex 1.352] the same measures were 100 nM and 1.17 µM.
